The values below come from patent publication US5369104A, “Pyridazine compounds, their production and use” (Takeda Chemical Industries, Ltd., priority 1991, dated 1994).

The assay concerns PAF-induced bronchoconstriction. Kind of assay: Action against PAF-induced bronchoconstriction in guinea pigs (Konzett-R6essler method). The format is in vivo, guinea pig (male Hartley). As to conditions: guinea pig; 10 mg/Kg orally, 1 hour before PAF (1 μg/Kg, i.v.); recorded for 15 minutes. On the procedure:
(Action against PAF-induced bronchoconstriction in guinea pigs)
Male Hartley guinea pigs (body weight 500 g) were used. The bronchoconstriction reaction in the guinea pig which has intravenously received PAF (1 μg/kg) was measured by the Konzett-R6essler method. The trachea of the guinea pig with its back fixed was incised under anesthesia condition with urethane (intraperitoneal injection, 1.50 g/Kg) and connected with an artificial respirator via a cannula. The branch of the tracheal cannula was connected with a transducer (7020 type, Ugobasile). Air was sent to the trachea at the volume of 3-7 ml/stroke, at the stroke of 70 strokes/min. at load pressure of 10cm H2 O to lung and overflowed air volume was recorded with Rectegraph (Recte-Hori-8s, Sanei Sokuki) via the transducer. After the guinea pig was treated with galamine (1 mg/Kg, i.v.), PAF (1 μg/Kg) dissolved in a physiological saline solution was administered to the guinea pig via a jugular venous cannula and the bronchoconstriction reaction induced thereby was recorded for 15 minutes. The drug (10 mg/Kg) suspended in a 5% gum arabic solution was administered orally 1 hour before the injection of PAF.
Action against PAF-induced bronchoconstriction of guinea pigs

Regarding `Cc1cc2nccn2nc1CCC(C)(C)CCS(N)(=O)=O` [Example 4, 6-(3,3-dimethyl-5-sulfamoyl-1-pentyl)-7-methylimidazo[1,2-b]pyridazine], the “Inhibition (%) of PAF-induced bronchoconstriction” value was 86%.
